The supplement of paper PMC4858399
Where a name gives a salt, the structure may show the parent alone.

Key:
Settings in all cases: exposure time 48 h
[1] = test system: Caenorhabditis elegans N2; experiment: mean nematode size ln(EXT) after 48 h, plate-adjusted (DMSO control set to 6) (ln(EXT), control-adjusted); higher = larger nematodes / less growth inhibition
Summary of the method: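 Synchronised C. elegans N2 L1 larvae (50 per well, 4–6 wells per treatment) were grown for 48 h at 20°C in K-medium with killed OP50, 1% DMSO and 0.5–200 µM chemical. The Biosort measured each worm's extinction, and debris was removed by a growth model. Values were natural-logged and averaged per well. Mean size was then plate-adjusted by subtracting the vehicle control mean and adding 6.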

[2] = test system: Caenorhabditis elegans N2; experiment: lowest effective concentration for larval growth inhibition (size below effect threshold); higher = less potent
Summary of the method: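 Each well of a 96-well plate received 50 C. elegans N2 L1 larvae, which grew for 48 h at 20°C in K-medium containing killed bacteria, 1% DMSO and the chemical at 0.5, 1, 5, 10, 50, 100 or 200 µM. A Biosort recorded the extinction of every worm as its size, and these readings were log-transformed and averaged per well. The lowest effective concentration is defined as the first dose at which the plate-adjusted mean size falls below the threshold and stays below it at all higher doses; that threshold is 5.665.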

[3] = test system: Caenorhabditis elegans N2; experiment: AC50 for larval growth inhibition (Hill fit); higher = less potent
Summary of the method: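 After 48 h at 20°C in K-medium with killed OP50, 1% DMSO and 0.5–200 µM chemical, synchronised C. elegans N2 L1 larvae (50 per well, 96-well plates) were sized individually as extinction on a COPAS Biosort. These values were log-transformed and averaged per well, and wells with fewer than 10 worms were excluded. The AC50 was derived from a constrained Hill fit by weighted genetic-algorithm regression, and out-of-range values are censored.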

Structure (SMILES)	mean nematode size ln(EXT) (ln) ([1]; 0.5 µM)	mean nematode size ln(EXT) (ln) ([1]; 1 µM)	mean nematode size ln(EXT) (ln) ([1]; 5 µM)	mean nematode size ln(EXT) (ln) ([1]; 10 µM)	mean nematode size ln(EXT) (ln) ([1]; 50 µM)	mean nematode size ln(EXT) (ln) ([1]; 100 µM)	mean nematode size ln(EXT) (ln) ([1]; 200 µM)	lowest effective concentration [2] [µM]	AC50 for larval growth inhibition [3] [µM]
O=C1C2(Cl)C3(Cl)C4(Cl)C(Cl)(Cl)C5(Cl)C3(Cl)C1(Cl)C5(Cl)C24Cl (configuration not stated) [Kepone (Chlordecone)]	5.67	5.53	4.74	4.04	3.69	3.63	4.06	1	3.31
CC(Cc1ccc(OCC(=O)O)cc1)NCC(O)c1csc(C(F)(F)F)n1 (configuration not stated)	5.86	5.88	5.84	6.03	5.84	5.89	5.4	200	> 200
COc1ccc(C(=O)Nc2nc3ccccc3c(NCc3ccccc3)c2C#N)cc1 [N-[4-(benzylamino)-3-cyanoquinolin-2-yl]-4-methoxybenzamide]	5.68	5.65	5.49	5.41	5.18	4.88	4.46	1	> 200
C=CCc1cc(S(=O)(=O)c2ccc(O)c(CC=C)c2)ccc1O [4,4'-sulfonylbis[2-(prop-2-en-1-yl)phenol]]	5.87	5.88	5.9	5.89	5.39	5.1	4.49	50	190
Cn1cnc([N+](=O)[O-])c1Sc1ncnc2[nH]cnc12 [Azathioprine]	5.89	5.89	5.93	5.86	5.89	5.84	5.36	200	> 200
Cc1c2ccccc2c(C)c2c1ccc1ccccc12 [7,12-Dimethylbenz(a)anthracene]	6.05	5.87	5.53	5.48	5.02	4.89	4	5	110
O=C(O)C1C(C(=O)O)C2(Cl)C(Cl)=C(Cl)C1(Cl)C2(Cl)Cl (configuration not stated) [Chlorendic acid]	5.71	5.85	5.82	5.84	5.76	5.65	5.45	100	> 200
CCCCCCCCn1sccc1=O [Octhilinone]	5.47	5.54	5.56	5.58	4.2	3.68	3.36	≤ 0.5	34.9
CCCCNC(=O)n1c(NC(=O)OC)nc2ccccc21 [Benomyl]	6.03	6.07	5.68	5.58	5.36	5.4	4.35	10	> 200
CN(C)c1ccc(C(=O)c2ccc(N(C)C)cc2)cc1 [Michler's ketone]	5.78	5.87	5.83	5.78	5.82	5.88	5.58	200	> 200
Nn1cnnc1 [4-Amino-4H-1,2,4-triazole]	5.81	5.85	5.83	5.8	5.57	5.78	5.36	200	> 200
CC(C)(C)c1cc(/C=C2\SC(=N)NC2=O)cc(C(C)(C)C)c1O [Darbufelone mesylate]	5.59	5.62	5.03	5.48	4.17	4.18	3.87	≤ 0.5	31.2
COC(=O)C(C)Oc1ccc(Oc2ccc(Cl)cc2Cl)cc1 (configuration not stated) [Diclofop-methyl]	6.06	6.74	6	5.92	5.56	5.39	4.62	50	> 200
CCCCCCCCCCCCc1cccc(S(=O)(=O)O)c1 [Triethanolamine dodecylbenzene sulfonate]	5.43	5.59	5.54	5.69	5.03	4.02	4.04	50	50.5
CCOP(=S)(OCC)Oc1ccc([N+](=O)[O-])cc1 [Parathion]	5.59	5.66	5.54	5.03	3.46	3.63	3.36	≤ 0.5	13.4
CC1(C)C(=O)N(Br)C(=O)N1Br [1,3-Dibromo-5,5-dimethylhydantoin]	5.7	5.78	5.81	5.86	5.87	5.87	5.61	200	> 200
CN(C)C(=S)SSC(=S)N(C)C [Thiram]	6	6.02	6.06	6.13	5.55	5.36	5.13	50	48.9
COCCOCCOCCOC [Triethylene glycol dimethyl ether]	5.75	6.01	5.91	5.91	5.72	5.81	5.64	200	> 200
CC[C@H](C)[C@@H](C(=O)O)n1sc2ccccc2c1=O	5.91	6.12	6.17	6.14	6.07	5.94	5.59	200	105
CCC/C(=N\OCC)C1=C(O)CC(CC(C)SCC)CC1=O (configuration not stated) [Sethoxydim]	6.01	6.16	6.06	6	5.76	5.97	3.35	200	149
CCOC(=O)C(C)Oc1ccc(Oc2nc3ccc(Cl)cc3o2)cc1 (configuration not stated) [Fenoxaprop-ethyl]	5.83	6.04	6	5.97	5.68	5.4	5.18	100	76.3
Nc1ccc(S(=O)(=O)c2ccc(N)cc2)cc1 [4-Aminophenyl sulfone]	5.93	5.92	5.94	5.86	5.83	5.8	5.56	200	> 200
COc1cc(OC)nc(NC(=O)NS(=O)(=O)c2ncccc2OCC(F)(F)F)n1 [Trifloxysulfuron-sodium]	5.81	5.77	6.02	5.88	5.9	5.97	5.51	200	196
